# Laboratory results reported in the supplement of paper PMC11208160.
# Assay: recombinant UMI read abundance after kanamycin selection (control-corrected) (log10(CPM+1)); higher = more efficient recombination; extreme values may be limits of the assay; sequences stand for … in AGTGCAGAGAAAATCGGCCAGTTTTCTCTGCCTGCAGTCCGCATGCCGTGGGACCCCTTGGGTTCTAACCTGTTGCCTAGATTTATGCAGCGGACTGCCTTTCTCCCAAAGTGATAAACCGG…AGGTTGGTTTCACT; site = the 11-nt donor
# Procedure, shortened: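 Counts of recombinant UMIs were reported as log10(CPM+1). Before that, they were converted to CPM, averaged over replicates and scaled using control-derived factors. They came from PCR across the donor–target junction after Escherichia coli carrying the pair library and target plasmid was plated on IPTG (0.07 mM) plus kanamycin, or unselected, in two replicates each.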
# 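Also: IS621 bridge recombinase in Escherichia coli cells against a fixed T5 target plasmid.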
row,Sequence,recombinant UMI read abundance (log10)
1,CTAGTATCATGGACCGGTTTTCCCGGTAATCCGTATTTGAC (site CTAGAATCTGT),0.992
2,CTAGTATCATGGACCGGTTTTCCCGGTAATCCGTATTTGAC (site CTAGACTCTGT),0
3,CTAGTATCATGGACCGGTTTTCCCGGTAATCCGTATTTGAC (site CTAGCAGCTGT),0
4,CTAGTATCATGGACCGGTTTTCCCGGTAATCCGTATTTGAC (site CTAGCATCTGG),0
5,CTAGTATCATGGACCGGTTTTCCCGGTAATCCGTATTTGAC (site CTAGCATCTGT),1.59
6,CTAGTATCATGGACCGGTTTTCCCGGTAATCCGTATTTGAC (site CTAGCATCTTT),0.0133
7,CTAGTATCATGGACCGGTTTTCCCGGTAATCCGTATTTGAC (site CTAGCTTCTGT),0
8,CTAGTATCATGGACCGGTTTTCCCGGTAATCCGTATTTGAC (site CTAGGACCTGT),0
9,CTAGTATCATGGACCGGTTTTCCCGGTAATCCGTATTTGAC (site CTAGGATCTAT),0.00421
10,CTAGTATCATGGACCGGTTTTCCCGGTAATCCGTATTTGAC (site CTAGGATCTGC),0
11,CTAGTATCATGGACCGGTTTTCCCGGTAATCCGTATTTGAC (site CTAGGATCTGT),0.927
12,CTAGTATCATGGACCGGTTTTCCCGGTAATCCGTATTTGAC (site CTAGGGTCTGT),0
13,CTAGTATCATGGACCGGTTTTCCCGGTAATCCGTATTTGAC (site CTAGTAACTCT),0.0077
14,CTAGTATCATGGACCGGTTTTCCCGGTAATCCGTATTTGAC (site CTAGTAACTGA),0
15,CTAGTATCATGGACCGGTTTTCCCGGTAATCCGTATTTGAC (site CTAGTAACTGT),1.82
16,CTAGTATCATGGACCGGTTTTCCCGGTAATCCGTATTTGAC (site CTAGTACCTAT),0.00604
17,CTAGTATCATGGACCGGTTTTCCCGGTAATCCGTATTTGAC (site CTAGTACCTGC),0
18,CTAGTATCATGGACCGGTTTTCCCGGTAATCCGTATTTGAC (site CTAGTACCTGT),0
19,CTAGTATCATGGACCGGTTTTCCCGGTAATCCGTATTTGAC (site CTAGTAGCTGG),0
20,CTAGTATCATGGACCGGTTTTCCCGGTAATCCGTATTTGAC (site CTAGTAGCTGT),0
21,CTAGTATCATGGACCGGTTTTCCCGGTAATCCGTATTTGAC (site CTAGTAGCTTT),0.0305
22,CTAGTATCATGGACCGGTTTTCCCGGTAATCCGTATTTGAC (site CTAGTATCTAC),0.564
23,CTAGTATCATGGACCGGTTTTCCCGGTAATCCGTATTTGAC (site CTAGTATCTAT),2.78

row,Sequence,recombinant UMI read abundance (log10)
1,CTAGTATCATGGACCGGTTTTCCCGGTAATCCGTATTTGAC (site CTAGTATCTCA),0.333
2,CTAGTATCATGGACCGGTTTTCCCGGTAATCCGTATTTGAC (site CTAGTATCTCT),1.67
3,CTAGTATCATGGACCGGTTTTCCCGGTAATCCGTATTTGAC (site CTAGTATCTGA),1.14
4,CTAGTATCATGGACCGGTTTTCCCGGTAATCCGTATTTGAC (site CTAGTATCTGC),2.62
5,CTAGTATCATGGACCGGTTTTCCCGGTAATCCGTATTTGAC (site CTAGTATCTGG),1.48
6,CTAGTATCATGGACCGGTTTTCCCGGTAATCCGTATTTGAC (site CTAGTATCTGT),2.66
7,CTAGTATCATGGACCGGTTTTCCCGGTAATCCGTATTTGAC (site CTAGTATCTTG),0.0198
8,CTAGTATCATGGACCGGTTTTCCCGGTAATCCGTATTTGAC (site CTAGTATCTTT),2.1
9,CTAGTATCATGGACCGGTTTTCCCGGTAATCCGTATTTGAC (site CTAGTCACTGT),0
10,CTAGTATCATGGACCGGTTTTCCCGGTAATCCGTATTTGAC (site CTAGTCTCTCT),0.0131
11,CTAGTATCATGGACCGGTTTTCCCGGTAATCCGTATTTGAC (site CTAGTCTCTGA),0
12,CTAGTATCATGGACCGGTTTTCCCGGTAATCCGTATTTGAC (site CTAGTCTCTGT),1.18
13,CTAGTATCATGGACCGGTTTTCCCGGTAATCCGTATTTGAC (site CTAGTGCCTGT),0
14,CTAGTATCATGGACCGGTTTTCCCGGTAATCCGTATTTGAC (site CTAGTGTCTAT),0.00843
15,CTAGTATCATGGACCGGTTTTCCCGGTAATCCGTATTTGAC (site CTAGTGTCTGC),0
16,CTAGTATCATGGACCGGTTTTCCCGGTAATCCGTATTTGAC (site CTAGTGTCTGT),2.01
17,CTAGTATCATGGACCGGTTTTCCCGGTAATCCGTATTTGAC (site CTAGTTGCTGT),0
18,CTAGTATCATGGACCGGTTTTCCCGGTAATCCGTATTTGAC (site CTAGTTTCTGG),0
19,CTAGTATCATGGACCGGTTTTCCCGGTAATCCGTATTTGAC (site CTAGTTTCTGT),0
20,CTAGTATCATGGACCGGTTTTCCCGGTAATCCGTATTTGAC (site CTAGTTTCTTT),0
21,CTAGTATCATGGACCGGTTTTCCCGGTAATCCGTATTTGAC (site CTATGATCTGT),0
22,CTAGTATCATGGACCGGTTTTCCCGGTAATCCGTATTTGAC (site CTATTACCTGT),0
23,CTAGTATCATGGACCGGTTTTCCCGGTAATCCGTATTTGAC (site CTATTATCTAT),0

row,Sequence,recombinant UMI read abundance (log10)
1,CTAGTATCATGGACCGGTTTTCCCGGTAATCCGTATTTGAC (site CTATTATCTGC),0
2,CTAGTATCATGGACCGGTTTTCCCGGTAATCCGTATTTGAC (site CTATTATCTGT),0.701
3,CTAGTATCATGGACCGGTTTTCCCGGTAATCCGTATTTGAC (site CTATTGTCTGT),0
4,CTAGTATCATGGACCGGTTTTCCCGGTAATCCGTATTTGAC (site CTCATATCTGT),0.632
5,CTAGTATCATGGACCGGTTTTCCCGGTAATCCGTATTTGAC (site CTCGAATCTGT),0
6,CTAGTATCATGGACCGGTTTTCCCGGTAATCCGTATTTGAC (site CTCGTAACTGT),0
7,CTAGTATCATGGACCGGTTTTCCCGGTAATCCGTATTTGAC (site CTCGTATCTCT),0.007
8,CTAGTATCATGGACCGGTTTTCCCGGTAATCCGTATTTGAC (site CTCGTATCTGA),0
9,CTAGTATCATGGACCGGTTTTCCCGGTAATCCGTATTTGAC (site CTCGTATCTGT),0.0723
10,CTAGTATCATGGACCGGTTTTCCCGGTAATCCGTATTTGAC (site CTCGTCTCTGT),0
11,CTAGTATCATGGACCGGTTTTCCCGGTAATCCGTATTTGAC (site CTGCTATCTGT),0
12,CTAGTATCATGGACCGGTTTTCCCGGTAATCCGTATTTGAC (site CTGGCATCTGT),0
13,CTAGTATCATGGACCGGTTTTCCCGGTAATCCGTATTTGAC (site CTGGTAGCTGT),0
14,CTAGTATCATGGACCGGTTTTCCCGGTAATCCGTATTTGAC (site CTGGTATCTGG),0
15,CTAGTATCATGGACCGGTTTTCCCGGTAATCCGTATTTGAC (site CTGGTATCTGT),0
16,CTAGTATCATGGACCGGTTTTCCCGGTAATCCGTATTTGAC (site CTGGTATCTTT),0.0145
17,CTAGTATCATGGACCGGTTTTCCCGGTAATCCGTATTTGAC (site CTGGTTTCTGT),0
18,CTAGTATCATGGACCGGTTTTCCCGGTAATCCGTATTTGAC (site CTTGGATCTGT),0
19,CTAGTATCATGGACCGGTTTTCCCGGTAATCCGTATTTGAC (site CTTGTACCTGT),0.169
20,CTAGTATCATGGACCGGTTTTCCCGGTAATCCGTATTTGAC (site CTTGTATCTAT),0
21,CTAGTATCATGGACCGGTTTTCCCGGTAATCCGTATTTGAC (site CTTGTATCTGC),0
22,CTAGTATCATGGACCGGTTTTCCCGGTAATCCGTATTTGAC (site CTTGTATCTGT),1.57
